# Laboratory results reported in patent publication US8778413B2, “Dosing regimens and methods of treatment using carbon monoxide” (Ikaria, Inc., priority 2010, dated 2014).
# “Also recorded” adds a separate entry of the source. Like-named read-outs stand apart in the source and are kept apart here. Marks after values point to notes of the source that are not given here.
# Columns and labels:
# [1] = system: renal function of renal transplant recipients; assay: Transplanted organ (renal) function: serum creatinine and calculated GFR; type: in vivo, human
# Method: (§1) Study subjects receive either (i) 12-48 hours post-operatively following renal transplant, a single dose of placebo (i.e., O2 30% in nitrogen) or carbon monoxide (Covox 12 mg/L) at 0.7 mg/kg or 2 mg/kg via inhalation for a time period of 1 hour, or (ii) intra-operatively during renal transplant surgery (at the time of re-anastomosis), a dose of placebo (i.e., O2 30% in nitrogen), 2 mg/kg or 3 mg/kg carbon monoxide via inhalation for a time period of 1 hour.
# Organ function is assessed in subjects using pharmacodynamic markers representing renal functions. In particular, serum creatinine (SCr) levels are measured (using conventional methods) and glomerular filtration rate (GFR) is calculated via MDRD (GFR (mL/min/1.73 m2)=175×(Scr)−1.154× (Age)−0.203×(0.742 if female)×(1.212 if African American); as described by Levey et al., “Chronic Kidney Disease Epidemiology Collaboration. Using standardized serum creatinine values in the modification of diet in renal disease study equation for estimating glomerular filtration rate,” Ann Intern Med, 145(4):247-254 (2006)).
# [2] = system: renal transplant recipients; assay: Safety of carbon monoxide dosing regimens (AEs, ECG, QTc); type: in vivo, human
# Method: as §1
# All renal transplant recipients receiving carbon monoxide up to 3 mg/kg carbon monoxide (both intra-operatively and post-operatively dosed) are evaluated for safety. […] The most sensitive organs to carbon monoxide poisoning are heart and brain. As presented herein, the relationship between carbon monoxide exposure (COHb) and cardiovascular function (i.e., QTc) at 8 hours post-treatment of subjects receiving inhaled carbon monoxide or placebo (FIG. 4) is assessed via a pharmacokinetic-pharmacodynamic (PKPD) approach. Similarly, as presented herein, the relationship between subjects receiving one of various inhaled carbon monoxide doses or placebo and key neurocognitive functions (i.e., individual digit vigilance speed (FIG. 5), numeric working memory accuracy (FIG. 6) and picture recognition (FIG. 7)) up to 24 weeks post-treatment is assessed via a pharmacokinetic-pharmacodynamic (PKPD) approach.
# [3] = water at 0° C.; cited from earlier work
# [4] = system: renal transplant recipients; assay: Neurocognitive functions (digit vigilance speed, numeric working memory accuracy, picture recognition); type: in vivo, human; settings: up to 3 mg/kg inhaled 1 hour, up to 24 weeks post-treatment
# Method: FIG. 5, FIG. 6 and FIG. 7 illustrate the impact of carbon monoxide treatment on neurocognitive functions over 6 months in subjects receiving kidney transplants following inhalation of placebo, 0.7 mg/kg, 2 mg/kg or 3 mg/kg carbon monoxide through the evaluation of individual digit vigilance speed (FIG. 5), numeric working memory accuracy (FIG. 6) and picture recognition (FIG. 7). The CO doses were administered either 12-48 hours post-operatively following renal transplant (placebo, 0.7 mg/kg or 2 mg/kg) or intra-operatively during renal transplant surgery (placebo, 2 mg/kg or 3 mg/kg). Visit #1: Screening; Visit #4: Day 0; Visit #6: Day 1; Visit #14-16: Day 28; Visit #17-18: Follow-up Weeks 16-24. The open symbols reflect individual observations, the thin lines reflect individual trends and thick lines reflect the average trend based on linear regression. […]
# All renal transplant recipients receiving carbon monoxide up to 3 mg/kg carbon monoxide (both intra-operatively and post-operatively dosed) are evaluated for safety. […] As presented herein, the relationship between carbon monoxide exposure (COHb) and cardiovascular function (i.e., QTc) at 8 hours post-treatment of subjects receiving inhaled carbon monoxide or placebo (FIG. 4) is assessed via a pharmacokinetic-pharmacodynamic (PKPD) approach. […]
# [5] = type: in vivo, human; settings: for CL/F, based on net COHb: intra-operative
# Method: as §1
# COHb exposure is measured using conventional methods. For example, COHb exposure can be ascertained by measuring the amount present in venous blood using a device known as a CO-OXI meter. For both post- and intra-operative dosing regimens, dose-dependency of COHb Cmax and AUC is evaluated, the results of which are shown graphically in FIGS. 1A and 1B.
smiles,measurement,setting,value
[C-]#[O+] [carbon monoxide],renal function (GFR and Scr),"[1]; given 12-48 hours after the surgery, 0.7 or 2 mg/kg",does not improve renal function
same,renal function (GFR and Scr),"[1]; given during surgery (intra-operatively), 2 or 3 mg/kg",improves renal function in a dose-dependent manner
same,calculated GFR on Day 1 and Day 2 versus COHb concentration,"[1]; intra-operatively treated subjects, FIG. 2 left panel",increased COHb is related to improved renal function (GFR)
same,serum creatinine level on Day 2 versus COHb concentration,"[1]; intra-operatively treated subjects, FIG. 3 left panel",increased COHb is related to improved renal function (decreased serum creatinine)
same,calculated GFR on Day 1 and Day 2 versus COHb concentration,"[1]; post-operatively treated subjects, FIG. 2 right panel",increased COHb is not related to the improvement of GFR
same,serum creatinine level on Day 2 versus COHb concentration,"[1]; post-operatively treated subjects, FIG. 3 right panel",increased COHb did not improve the renal function (increased serum creatinine)
same,QT prolongation (QTc change from baseline versus COHb),"[2]; 8 hours after inhalation, up to 3 mg/kg for 1 hour",does not have an effect on QT prolongation; also recorded: unlikely to cause QT prolongation
same,tolerability,"[2]; all dose levels up to 3 mg/kg, intra- and post-operatively dosed",well tolerated
same,ECG changes,[2]; up to 3 mg/kg,"no ECG changes observed on heart rate, PR interval, QRS duration or QTcF duration"
same,new morphological changes or new infarction potentials,[2]; up to 3 mg/kg,no evidence observed on new morphological changes or new infarction potentials
same,incidence of cardiovascular and neurological AEs,"[2]; up to 3 mg/kg, versus placebo",comparable between CO and placebo treated subjects
same,saturation point,[3],about 0.0044 g CO/100 g medium
same,impact on neurocognitive functions,[4],does not have negative impact on neurocognitive functions; also recorded: unlikely to cause QT prolongation and affect neurocognitive functions
same,impact on neurocognitive functions,[4]; listed as CO,does not show any negative impact on neurocognitive functions
same,"CL/F, based on net COHb","[5]; 2.0 mg/kg, mean (n=6)",0.0474 mg/kg/(% * h)
same,"CL/F, based on net COHb","[5]; 3.0 mg/kg, mean (n=5)",0.0549 mg/kg/(% * h)
same,dose-dependency of COHb Cmax and AUC (% COHb/Hb),"[5]; post- and intra-operative regimens, 0.7-3 mg/kg, FIGS. 1A and 1B",increased with an increase in the dose of inhaled carbon monoxide in an approximately proportional manner
